The source of these data is patent US20210046139A1, “VEGETATION WATERS AND USES THEREOF” (FATTORIA LA VIALLA DI GIANNI, ANTONIO E BANDINO LO FRANCO - …, priority 2018, published 2021).

The assay deals with STZ diabetic rats. Briefly: Plasma total cholesterol, HDL and triglycerides. The assay is classed as in vivo, Sprague-Dawley rats. To be noted: 50 mg/kg/day, 5 weeks, mean ± S.E. The text has this:
A well-established model of streptozotocin (STZ)-induced diabetes in rats was used. Streptozotocin is a glucosamine derivative of nitrosurea which selectively destroys the β cells of the pancreatic islets and causes the development of diabetes with hyperglycemia and glycosuria. The model shares a series of characteristics with human diabetic complications at both a functional level and a biochemical level, such as, for example, a reduced nervous conduction, loss of small-diameter sensory nerve fibers in the skin, reduction in Na+ and K+-ATPase activity and early alterations of the thermal and mechanical nociceptive thresholds. In this study, diabetes was induced in 24 rats with a single intraperitoneal injection of 60 mg/kg of STZ dissolved in a sodium citrate buffer (pH 4.5). 24 rats injected only with the vehicle were used as non-diabetic controls. Hyperglycemia was confirmed by measuring glycosuria 72 hours after the injection of STZ using Keto-Diabur strips (KD-5000; Roche Diagnostics Spa, Italy). Only the animals with glycosuria >5% were classified as diabetic and included in the study. […] The animals were then randomized to receive the concentrate of the invention at an HT equivalent dose of 50 mg/kg/day or 50 mg/kg/day of pure HT in drinking water, according to the following treatment groups: The daily dose of compounds was administered starting from the 7th week after the injection of STZ or the vehicle. The treatment lasted 5 weeks and urine samples were taken. The animals were then sacrificed and the plasma, kidneys and sciatic nerves were removed. The sacrifice took place within 2 hours after the last administration of the concentrate, HT or the vehicle. At the end of the 5-week treatment period, urine and plasma were collected to measure the level of triglycerides (TG), total cholesterol (TC), high-density lipoprotein (HDL) and other parameters using commercially available diagnostic kits.

Setting [1] is: non-diabetic control rats (CTRL).

Molecules are shown by their SMILES.

For `OCCc1ccc(O)c(O)c1` [HT, hydroxytyrosol], where the note is “STZ diabetic rats”, the “PLASMA HDL” value was determined as 48.7 ± 1.6 mg/dL, the “PLASMA TC” value is 118.1 ± 3.0 mg/dL and the “PLASMA TG” value is 457.1 ± 60.7 mg/dL. Under setting [1], the “PLASMA HDL” value is 27.0 ± 0.4 mg/dL, the “PLASMA TC” value amounted to 84.4 ± 2.1 mg/dL and the “PLASMA TG” value is 111.5 ± 8.6 mg/dL.
